# ChEMBL document CHEMBL1147695, “Synthesis and in vitro evaluation of N-substituted aza-trozamicol analogs as vesicular acetylcholine transporter ligands” (Bioorg Med Chem Lett, 2006)
# pIC50: −log10 of the molar value.
# Molecular target: T1, Vesicular acetylcholine transporter (Homo sapiens, UniProt Q16572)
# T1 sequence (Q16572 whole entry): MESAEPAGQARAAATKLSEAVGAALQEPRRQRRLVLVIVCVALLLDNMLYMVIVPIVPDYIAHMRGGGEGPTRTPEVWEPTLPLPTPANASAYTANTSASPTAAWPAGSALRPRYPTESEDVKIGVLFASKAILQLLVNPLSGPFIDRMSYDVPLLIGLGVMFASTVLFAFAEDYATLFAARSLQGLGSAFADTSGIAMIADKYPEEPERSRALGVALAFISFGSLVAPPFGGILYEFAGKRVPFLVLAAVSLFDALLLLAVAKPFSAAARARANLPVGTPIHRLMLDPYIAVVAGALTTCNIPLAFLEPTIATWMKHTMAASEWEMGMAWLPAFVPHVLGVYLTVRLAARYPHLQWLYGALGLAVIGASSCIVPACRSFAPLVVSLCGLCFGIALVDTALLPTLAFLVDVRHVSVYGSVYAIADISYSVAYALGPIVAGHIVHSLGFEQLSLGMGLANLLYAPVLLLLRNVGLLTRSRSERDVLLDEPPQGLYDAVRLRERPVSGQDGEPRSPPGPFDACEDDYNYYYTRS
# Test: Displacement of [3H]vesamicol from human VAChT transfected in PC12 cell line
# Format: cell-based, PC-12
row,pIC50,SMILES
1,< 7.00,C/C=C/CN1CCC(O)C(N2CCN(c3ccccc3)CC2)C1 (configuration not stated)
2,< 7.00,OC1CCN(C/C=C/I)CC1N1CCN(c2ccccc2)CC1 (configuration not stated)
3,< 7.00,OC1CCN(Cc2ccccc2)CC1N1CCN(c2ccccc2)CC1 (configuration not stated)
4,< 7.00,C=CCN1CCC(O)C(N2CCN(c3ccccc3)CC2)C1 (configuration not stated)
5,7.34,OC1CCN(Cc2cccc(Br)c2)CC1N1CCN(c2ccccc2)CC1 (configuration not stated)
6,< 7.00,OC1CCNCC1N1CCN(c2ccccc2)CC1 (configuration not stated)
7,< 7.00,OC1CN(Cc2ccc(Br)cc2)CCC1N1CCN(c2ccccc2)CC1 (configuration not stated)
8,< 6.00,C#CCN1CCC(N2CCN(c3ccccc3)CC2)C(O)C1 (configuration not stated)
9,7.18,OC1CN(Cc2cccc(Br)c2)CCC1N1CCN(c2ccccc2)CC1 (configuration not stated)
10,< 7.00,OC1CCN(Cc2ccc(Br)cc2)CC1N1CCN(c2ccccc2)CC1 (configuration not stated)
11,< 7.00,C=C(C)CN1CCC(O)C(N2CCN(c3ccccc3)CC2)C1 (configuration not stated)
12,7.33,OC1CCN(Cc2ccccc2Br)CC1N1CCN(c2ccccc2)CC1 (configuration not stated)
13,< 7.00,C=CCN1CCC(N2CCN(c3ccccc3)CC2)C(O)C1 (configuration not stated)
14,< 7.00,C=C(C)CN1CCC(N2CCN(c3ccccc3)CC2)C(O)C1 (configuration not stated)
15,7.96,OC1CN(Cc2ccccc2Br)CCC1N1CCN(c2ccccc2)CC1 (configuration not stated)
16,7.24,OC1CN(Cc2ccccc2)CCC1N1CCN(c2ccccc2)CC1 (configuration not stated)
17,< 7.00,OC1CN(C/C=C/I)CCC1N1CCN(c2ccccc2)CC1 (configuration not stated)
18,7.00,C/C=C/CN1CCC(N2CCN(c3ccccc3)CC2)C(O)C1 (configuration not stated)
19,< 6.00,CCN1CCC(N2CCN(c3ccccc3)CC2)C(O)C1 (configuration not stated)
20,< 7.00,C#CCN1CCC(O)C(N2CCN(c3ccccc3)CC2)C1 (configuration not stated)
21,< 6.00,CCN1CCC(O)C(N2CCN(c3ccccc3)CC2)C1 (configuration not stated)

row,SMILES,pIC50
1,OC1CNCCC1N1CCN(c2ccccc2)CC1 (configuration not stated),7.00
